Experimental data reported in ChEMBL document CHEMBL5137004, “An overview on the synthetic urease inhibitors with structure-activity relationship and molecular docking” (Eur J Med Chem, 2022).
pIC50, pKi: −log10 of the molar value.

How the values were obtained:
[1] = target: Urease subunit alpha/Urease subunit beta (Helicobacter pylori (strain ATCC 700392 / 26695) (Campylobacterpylori), UniProt P69996); test: Inhibition of Helicobacter pylori urease; assay type: protein-complex assay
Urease [2] = target: T1, Urease (Canavalia ensiformis, UniProt P07374); test: Inhibition of jack bean urease
Urease [3] = target: T1, Urease; test: Inhibition of jack bean urease assessed as reduction on ammonia production using urea as substrate incubated for 30 mins by indophenol method
[4] = Inhibition of urease (unknown origin); conditions: for pIC50: read-out: IC50
Urease [5] = target: T1, Urease; test: Inhibition of jack bean urease assessed as reduction on ammonia production using urea as substrate preincubated for 15 mins followed by substrate addition and measured after 15 mins by indophenol method
Urease [6] = target: T1, Urease; test: Inhibition of jack bean urease assessed as reduction on ammonia production using urea as substrate incubated for 15 mins by indophenol reagent based microplate reader assay
[7] = Inhibition of urease (unknown origin) assessed as reduction on ammonia production using urea as substrate incubated for 15 mins by indophenol reagent based microplate reader assay
[8] = Antioxidant activity assessed as DPPH radical scavenging activity incubated for 30 mins; assay type: functional
Urease [9] = target: T1, Urease; test: Inhibition of jack bean urease assessed as reduction on ammonia production using urea as substrate incubated for 30 mins by indophenol reagent based UV-vis spectrophotometer
Urease [10] = target: T1, Urease; test: Non-competitive inhibition of jack bean urease assessed as dissociation constant measured upto 10 mins by Lineweaver-Burk plot analysis

T1 sequence (P07374 whole entry): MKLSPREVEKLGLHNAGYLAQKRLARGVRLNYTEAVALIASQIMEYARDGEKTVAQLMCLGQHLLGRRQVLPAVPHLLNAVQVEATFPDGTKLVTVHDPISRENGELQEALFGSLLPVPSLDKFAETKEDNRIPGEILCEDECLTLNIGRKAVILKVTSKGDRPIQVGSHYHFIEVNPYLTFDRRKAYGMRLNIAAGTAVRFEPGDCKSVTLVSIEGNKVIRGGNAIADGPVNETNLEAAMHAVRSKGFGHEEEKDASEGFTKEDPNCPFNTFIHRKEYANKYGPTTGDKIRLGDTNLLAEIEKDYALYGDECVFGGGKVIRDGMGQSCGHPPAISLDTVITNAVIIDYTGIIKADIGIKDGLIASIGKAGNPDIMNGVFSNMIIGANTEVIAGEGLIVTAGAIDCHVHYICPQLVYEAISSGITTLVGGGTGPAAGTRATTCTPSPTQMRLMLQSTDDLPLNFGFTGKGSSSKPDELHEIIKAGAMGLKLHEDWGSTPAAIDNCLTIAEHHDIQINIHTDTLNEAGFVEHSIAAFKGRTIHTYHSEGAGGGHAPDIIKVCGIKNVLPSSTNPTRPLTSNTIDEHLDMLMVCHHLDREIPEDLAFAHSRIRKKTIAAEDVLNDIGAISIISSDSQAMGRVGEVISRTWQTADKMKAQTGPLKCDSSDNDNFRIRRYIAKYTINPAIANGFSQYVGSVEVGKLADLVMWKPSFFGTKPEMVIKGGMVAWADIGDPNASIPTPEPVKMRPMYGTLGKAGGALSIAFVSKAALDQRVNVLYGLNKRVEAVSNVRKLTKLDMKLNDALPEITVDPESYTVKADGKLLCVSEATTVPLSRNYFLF
Sequence of Urease subunit alpha/Urease subunit beta (P69996 whole entry): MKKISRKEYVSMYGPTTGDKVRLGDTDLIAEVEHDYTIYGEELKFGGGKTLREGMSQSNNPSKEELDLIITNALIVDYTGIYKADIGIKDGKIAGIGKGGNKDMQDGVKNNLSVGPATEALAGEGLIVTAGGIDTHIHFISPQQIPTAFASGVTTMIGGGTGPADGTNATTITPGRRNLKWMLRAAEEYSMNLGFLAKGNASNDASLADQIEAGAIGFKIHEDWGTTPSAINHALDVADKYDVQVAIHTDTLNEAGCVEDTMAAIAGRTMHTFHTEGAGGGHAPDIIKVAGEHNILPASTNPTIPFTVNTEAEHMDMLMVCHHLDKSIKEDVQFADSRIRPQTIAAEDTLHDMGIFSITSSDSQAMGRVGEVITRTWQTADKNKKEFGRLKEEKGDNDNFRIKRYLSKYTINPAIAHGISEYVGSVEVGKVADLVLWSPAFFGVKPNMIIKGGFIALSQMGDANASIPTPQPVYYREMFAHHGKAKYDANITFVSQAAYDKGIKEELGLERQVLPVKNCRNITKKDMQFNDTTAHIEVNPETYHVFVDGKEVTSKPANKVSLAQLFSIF
Sequence of Urease subunit alpha/Urease subunit beta (P14916 whole entry, further chain): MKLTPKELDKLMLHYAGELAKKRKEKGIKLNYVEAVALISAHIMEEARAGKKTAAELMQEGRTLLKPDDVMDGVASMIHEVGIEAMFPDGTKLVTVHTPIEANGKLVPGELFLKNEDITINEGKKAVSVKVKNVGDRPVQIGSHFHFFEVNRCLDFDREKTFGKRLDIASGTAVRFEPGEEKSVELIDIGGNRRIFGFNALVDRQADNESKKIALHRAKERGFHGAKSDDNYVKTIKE

## O=C(COc1ccc(CC2C(=O)NC(=O)NC2=O)cc1)Nc1cccc(Cl)c1Cl
[1]
  pIC50: 6.16

## NNC(=O)c1ccc(C(=O)Cn2nc(-c3ccccc3O)nc2-c2ccccc2O)cc1
Urease [2]
  pIC50: 5.49

## NC(N)=S [THIOUREA]
[1]
  pIC50: 4.64
Urease [3]
  pIC50: 4.74

## COc1ccc(-c2nc(C(=O)NC3CCCCC3)cs2)cc1
[4]
  pIC50: 5.74

## CC(C)NCC(O)COc1ccc(CC(N)=O)cc1 (configuration not stated) [ATENOLOL]
Urease [5]
  pIC50: 4.19

## Cc1ccc(/C=N/Nc2nc(-c3ccc(Br)cc3)cs2)cc1
[4]
  pIC50: 6.96

## O=C(Cc1nnn[nH]1)Cn1nc(-c2ccccc2O)nc1-c1ccccc1O
Urease [2]
  pIC50: 5.90

## O=[N+]([O-])c1ccc(S(=O)(=O)Nc2nnc(-c3ccc(C(c4c[nH]c5ccc(Br)cc45)c4c[nH]c5ccc(Br)cc45)cc3)s2)c([N+](=O)[O-])c1
[4]
  pIC50: 6.30

## Nc1cccc(C(c2c(O)c3ccccc3oc2=O)c2c(O)c3ccccc3oc2=O)c1
[4]
  pIC50: 4.13

## O=C(CC(O)c1cc(Cl)ccc1OCc1ccccc1)NO (configuration not stated)
[4]
  pIC50: 6.82

## C[C@H](O)c1nc2ccccc2[nH]1
Urease [6]
  pIC50: 4.66

## CC(C)=CCN1C(=O)/C(=N/Nc2ccccc2)c2ccccc21
[4]
  pIC50: 6.15

## NS(=O)(=O)c1ccc(NC=C2C(=O)NC(=S)NC2=O)cc1
Urease [6]
  pIC50: 5.42

## O=C(NNC(=S)Nc1ccc([N+](=O)[O-])cc1)c1ccc(-c2nc3ccccc3s2)cc1
[7]
  pIC50: 5.85

## COc1ccc(C(=O)NNC(=O)c2cc(Cl)cc(Cl)c2)cc1
[4]
  pIC50: 6.06

## Nn1c(-c2ccc(Br)cc2)n[nH]c1=S
Urease [2]
  pIC50: 5.37

## COc1ccc(/C=C/C(=O)c2ccc(O)cc2)cc1
[4]
  pIC50: 4.94

## CC(=O)NO [ACETOHYDROXAMIC ACID]
[4]
  pIC50: 4.53

## C/C(=N\NC(=S)Nc1cccc([N+](=O)[O-])c1)c1cc2ccccc2o1
Urease [2]
  pIC50: 7.11

## O=C(/C=C/c1ccc(O)c(O)c1)O[C@@H]1C[C@](O)(C(=O)Nc2ccc(-c3ccc(Cl)cc3[N+](=O)[O-])cc2)CC(O)C1O (some centres not stated)
[8]
  pIC50: 5.29
Urease [2]
  pIC50: 4.96

## COc1ccc2cc([C@@H](C)c3nc4cc(Cl)ccc4[nH]3)ccc2c1
Urease [6]
  pIC50: 4.44

## Cc1nc2cc(Cl)c(Cl)cc2n1Cc1nnc(S)n1-c1ccc([N+](=O)[O-])cc1
Urease [9]
  pIC50: 7.53

## CCc1nc2ccccc2c(=O)n1CC(=O)NNC(=O)c1cc2cc(Br)ccc2oc1=O
[4]
  IC50: 1.26 µg/mL

## COc1ccc(-c2c/c(=N\C(=S)Nc3cccc([N+](=O)[O-])c3)c3c(O)cc(O[C@@H]4O[C@H](CO)[C@@H](O)[C@H](O)[C@H]4O[C@@H]4O[C@@H](C)[C@H](O)[C@@H](O)[C@H]4O)cc3o2)cc1O
[8]
  pIC50: 5.28
Urease [6]
  pIC50: 4.90

## O=C(N/N=C/c1c(O)ccc2c(=O)cc(-c3ccc(F)cc3)oc12)c1ccccc1
[4]
  pIC50: 5.92

## O=C1Nc2ccc(Cl)cc2/C1=C\c1ccc(C(=O)N/N=C/c2c(O)cc(O)cc2O)cc1
[4]
  pIC50: 4.89

## S=P(Nc1ccc(CCc2ccc(NP(=S)(c3ccccc3)c3ccccc3)cc2)cc1)(c1ccccc1)c1ccccc1
Urease [9]
  pIC50: 8.72

## NC(=O)NO [HYDROXYUREA]
[1]
  pIC50: 4.00

## Cc1nc2cc(Cl)c(Cl)cc2n1CC(=O)NNC(=S)Nc1ccc([N+](=O)[O-])cc1
Urease [9]
  pIC50: 7.45

## O=c1c2ccccc2nc(Cc2ccccc2)n1Cc1nnc(Nc2ccc([N+](=O)[O-])cc2)s1
[4]
  IC50: 3.3 µg/mL

## CCNc1cc2c(cc1C)C1(c3cc(C)c(NCC)cc3O2)c2ccccc2C(=O)N1NC(=O)c1ccccc1
Urease [2]
  pIC50: 6.96

## O=[N+]([O-])c1ccc(S(=O)(=O)N/N=C(\c2ccccc2)c2ccc(O)cc2)cc1
[4]
  pIC50: 5.41

## O=C1O[C@H]([C@@H](O)CO)C(O)=C1O [ASCORBIC ACID]
Urease [2]
  pIC50: 5.07

## CCc1nc2cc([N+](=O)[O-])ccc2n1S(=O)(=O)c1ccc(C)cc1
Urease [2]
  pIC50: 4.51

## CCNC1NN=C(Cn2c(Cc3ccc(F)cc3)nc3ccccc3c2=O)S1 (configuration not stated)
Urease [2]
  pIC50: 5.33

## Cc1ncc([N+](=O)[O-])n1Cc1cn(Cc2ccc(F)cc2)nn1
Urease [2]
  pIC50: 5.70

## O=C1NC(=S)NC(=O)C1=CNc1cc([N+](=O)[O-])ccc1C(=O)O
[4]
  pIC50: 5.07

## Oc1ccc(C2Oc3cc(O)cc(O)c3/C(=N/C(=S)Nc3ccccc3)C2O)c(O)c1 (configuration not stated)
Urease [6]
  pIC50: 5.13

## CCCCCCCCCCCCCC(=O)NC(=S)Nc1cccc(Cl)c1
Urease [10]
  pKi: 7.68
Urease [3]
  pIC50: 7.41

## CCOc1ccc(NC(=S)N(CC(O)COc2ccc(CC(N)=O)cc2)C(C)C)cc1 (configuration not stated)
Urease [2]
  pIC50: 4.93

## COc1ccc(-c2c/c(=N\C(=O)Oc3ccccc3)c3c(O)cc(O[C@@H]4O[C@H](CO)[C@@H](O)[C@H](O)[C@H]4O[C@@H]4O[C@@H](C)[C@H](O)[C@@H](O)[C@H]4O)cc3o2)cc1O
[8]
  pIC50: 5.25
Urease [6]
  pIC50: 4.81

## COc1cc(C(=O)c2c(O)c3ccccc3oc2=O)cc(OC)c1OC
Urease [2]
  pIC50: 4.95
